Source: patent US4092420A, “Novel soft N-chloroamino alcohol derivatives exhibiting antibacterial activity” (INTERx Research Corporation, priority 1977, dated 1978)
In brackets after ≈: the same amount, converted by molar mass.

Assays:
P. aeruginosa [1] = assay: Minimal inhibitory concentration (MIC), Example V; assay type: cell-based; settings: Pseudomonas aeruginosa
Experimental: (§1) THE ANTIBACTERIAL SCREEN - EXAMPLE V
(§2) THE ANTIBACTERIAL SCREEN - EXAMPLES W - Z (Autotiter IV)
(§3) (a) Compounds. All compounds to be screened are weighed (approx. 10 mg) on the day preceding the test date. Each compound is solubilized on the day of assay in appropriate solvent and diluted automatically in the Autotiter IV with distilled water (buffer can be employed here also).
(§4) Bacteria: Staphylococcus aureas Smith (or 209), Escherichia coli AB 1932-1, 1100/B22 and Vogel, Streptococcus pyogenes C203 Salmonella typhimurium 14028, Bacillus subtilis 6051-1, Klebsiella pneumoniae 10031, Pseudomonas aeruginosa 9027, Bordetella bronchiseptica 4617 and Staphylococcus epidermidis 12228.
(§5) (c) Inocula. Prior to utilization in the Autotiter IV, all bacteria are cultured for 18-20 hr. (37° C) in tryptose phosphate broth (TP), except, S. pyogenes C203, which is cultured in Brain Heart Infusion broth plus 10% normal horse serum. Immediately prior to testing, each culture is adjusted to an optical density of 0.10 (650 nm), employing a Bausch & Lomb Spectronic 20, and diluted subsequently into double strength medium to approximately 2 × 10^5 viable organisms per ml.
(§6) 1. An automated injector system dispenses 0.05 ml of diluent (sterile H2 O or buffer) to all cups of the autotiter trays from rows 2 through 7.
(§7) 2. The loops (for sequential dilutions of the compounds are moistened by immersion into 70% ethyl alcohol. After removal of excess alcohol by blotting, the loops are moved to the first row of cups in the autotray containing 0.10 ml of the compound to be diluted and tested (usually, this initial concentration is 500 to 1000 mcg/ml, but can be varied upward or downward). The loops are lowered and sequentially transfer the diluted solutions of the compound through row 7.
(§8) Immediately after each dilution is made, each cup is automatically inoculated with 0.05 ml of the appropriate test organism. This inoculation derives from a second injector system containing the organism in double-strength medium. The total operation consists of the automatic dilution of a single compound in each of 8 rows of the Autotiter try.
(§9) After these operations, we reverse the tray and a second compound is diluted over the other one-half of the tray and inoculated, subsequently, with 8 organisms. Thus, for each Autotiter Tray, two compounds are screened against 8 different organisms at dilutions ranging from 1:2 to 1:128.
(§10) (e) Incubation. The inoculated Autotiter trays are incubated at 37° C for 18 - 20 hr. At the end of this period, each tray is examined for the presence or absence of growth (turbidity). The lowest concentration of the compound inhibiting growth is recorded as the minimal inhibitory concentration (MIC).

S. aureus = assay: Minimal inhibitory concentration (MIC), Example V; assay type: cell-based; settings: Staphylococcus aureus
Experimental: as §1, §2, §3, §4, §5, §6, §7, §8, §9, §10

S. pyogenes = assay: Minimal inhibitory concentration (MIC), Example V; assay type: cell-based; settings: Streptococcus pyogenes
A. niger = assay: Minimal inhibitory concentration (MIC), Example V; assay type: cell-based; settings: Aspergillus niger
Description: (§11) MINIMAL INHIBITORY CONCENTRATION OF 2-AMINO-2-METHYL-1-PROPYL
(§12) ^a Minimal inhibitory concentration expressed in parts per million
(§13) sequence inhibited the test organism at the higher concentrations.
as §1

E. coli = assay: Minimal inhibitory concentration (MIC), Example V; assay type: cell-based; settings: Escherichia coli
Description: as §11, §12, §13, §1

T. mentagrophytes = assay: Minimal inhibitory concentration (MIC), Example V; assay type: cell-based; settings: Trichophyton mentagrophytes
Description: as §11, §12, §13, §1

K. pneumoniae [2] = assay: Minimal inhibitory concentration (MIC), Example V; assay type: cell-based; settings: Klebsiella pneumoniae
Experimental: as §11, §12, §13, §1
Klebsiella pneumoniae ATCC# 10031
as §2, §3, §4, §5, §6, §7, §8, §9, §10

C. albicans = assay: Minimal inhibitory concentration (MIC), Example V; assay type: cell-based; settings: Candida albicans
Description: MINIMAL INHIBITORY CONCENTRATION OF 2-AMINO-2-METHYL-1-PROPYL […]
as §1

S. epidermidis = assay: Contact germicidal efficiency (sterilization time); assay type: cell-based, Staphylococcus epidermidis
Experimental: (§14) CONTACT GERMICIDAL EFFICIENCY OF N-CHLORAMINES AS A FUNCTION
(§15) ^a Time intervals screened 0.5, 1, 2, 3, 4 and 5 minutes.
(§16) ^a Time intervals screened 0.5, 1, 2, 3, 4, 5, 6, 7, 8, 9 and 10
(§17) ^a Time intervals screened 0.5, 1, 2, 3, 4, and 5 minutes.
(§18) ^b Time intervals screened 0.5, 1, 2, 3, 4, 5, 6, 7, 8, 9 and 10
(§19) Immediately preceding the screen, the compound is weighed and diluted with a buffer or other solvent to give the final concentration desired. The buffer or solvent chosen depends on the conditions of the screen and could be one of the following: 0.1 M NaOAc, pH 4.6; 0.1 M NaH2 PO4, pH 7.0; 0.1 M Na2 B4 O7, pH 8.8; 35% methanol in one of the aforementioned buffers; 10% Triton × 100 in buffer, etc.
(§20) The positive chlorine concentration of the test solution is then determined iodometrically.
(§21) Media used for the Screen are Nutrient Broth, BBL# 11479 and Nutrient Agar, BBL# 11472 prepared according to label directions. The broth is dispensed in 75 ml amounts of flasks for overnight cultures and in 5 ml amounts to culture tubes for subculturing during the Screen. Agar plates are prepared as usual.
(§22) Overnight cultures are prepared by inoculating from stock cultures into the 75 ml flasks of nutrient broth and incubating for 15 hours at 37° C.
(§23) The iodometrically characterized test solution is dispensed in 5 ml amounts to seven small stoppered flasks. The organisms are screened one at a time as follows:
(§24) A 0.2 ml portion of the overnight culture is inoculated into 5 ml of 0.9% NaCl for use in controls. A 0.2 ml portion of the overnight culture is inoculated into a flask containing 5 ml of the test solution, an automatic timer is simultaneously triggered and the solution mixed. At time intervals of 30 seconds, 1, 2, 3, 4, 5, 6, 7, 8, 9, and 10 minutes a loopful of the inoculated solution is subcultured into 5 ml of sterile nutrient broth and mixed by a Vortex Genie Mixer, the high dilution serving to stop the action of the compound. At the end of the ten minute screen, the entire procedure is repeated for each of the remaining six organisms. All of the subculture tubes are incubated at 37° C and checked for signs of growth by turbidity at 24 hr., 48 hr., 3, 5, and 7 days. The earliest subculture time at which no growth is present in the subculture tube is considered the endpoint and is recorded as that time, e.g., 7 minutes.
(§25) The test solution is prepared and characterized as above but is made up at twice the concentration desired. The solution is diluted 1:1 with Rehydrated Tissue Culture Dessicated Horse Serum, Difco #5357-72 and dispensed in a 5 ml amount to a small flask. The mixture is incubated at Room Temperature for 30 minutes to allow denaturation of the compound by the serum and then screened as above.
(§26) The 5 ml mixture of serum and test solution are prepared in sequence to allow as close to 30 minutes as possible before the beginning of the screen of each organism.
as §4

K. pneumoniae [3] = assay: Contact germicidal efficiency (sterilization time); assay type: cell-based, Klebsiella pneumoniae
Experimental: as §14, §15, §16, §17, §18, §19, §20, §21, §22, §23, §24, §25, §26, §4

P. aeruginosa [4] = assay: Contact germicidal efficiency (sterilization time); assay type: cell-based, Pseudomonas aeruginosa
Experimental: as §14, §15, §16, §17, §18, §19, §20, §21, §22, §23, §24, §25, §26, §4

B. bronchiseptica = assay: Contact germicidal efficiency (sterilization time); assay type: cell-based, Bordetella bronchiseptica
Experimental: as §14, §15, §16, §17, §18, §19, §20, §21, §22, §23, §24, §25, §26, §4

[5] = Example X, pH 4.6, no horse serum, IV c 404 ppm (69 PPMCl+), IV g 489 ppm (143 PPMCl+)
[6] = Example X, pH 7.0, no horse serum, IV c 1886 ppm (323 PPMCl+), IV g 409 ppm (120 PPMCl+)
[7] = Example X, pH 9.3, no horse serum, IV c 1704 ppm (292 PPMCl+), IV g 319 ppm (94 PPMCl+)
[8] = Example Z, S. pidermidis, pH 4.6, absence of horse serum, IV j 79 ppm (21 PPMCl+), IV k 5800 (1057), IV l 1112 (209)
[9] = Example Z, pH 4.6, absence of horse serum, IV j 79 ppm (21 PPMCl+), IV k 5800 (1057), IV l 1112 (209)

SMILES | MIC (P. aeruginosa [1]) [µg/mL] | MIC (S. aureus) [µg/mL] | MIC (S. pyogenes) [µg/mL] | MIC (A. niger) [µg/mL] | MIC (E. coli) [µg/mL] | MIC (T. mentagrophytes) [µg/mL] | MIC (K. pneumoniae [2]) [µg/mL] | MIC (C. albicans) [µg/mL] | also measured
CC(=O)OCC(C)(C)N(Cl)Cl [IV a, 2-N,N-Dichloroamino-2-methyl-1-propyl acetate] | 62.5 | > 62.5 | 62.5 | > 62.5 | > 62.5 | 62.5 | > 62.5 | > 62.5 | –
CCCC(=O)OCC(C)(C)NCl [IV b, 2-N-Chloroamino-2-methyl-1-propyl butyrate] | > 62.5 | > 62.5 | > 62.5 | > 62.5 | > 62.5 | > 62.5 | > 62.5 | > 62.5 | –
CCCCCC(=O)OCC(C)(C)NCl [IV d, 2-N-Chloroamino-2-methyl-1-propyl hexanoate] | > 62.5 | > 62.5 | > 62.5 | > 62.5 | > 62.5 | > 62.5 | > 62.5 | > 62.5 | –
CCCCCCCC(=O)OCC(C)(C)NCl [IV e, 2-N-Chloroamino-2-methyl-1-propyl octanoate] | > 62.5 | > 62.5 | > 62.5 | > 62.5 | > 62.5 | > 62.5 | > 62.5 | > 62.5 | –
CCCC(=O)OCC(C)(C)N(Cl)Cl [IV f, 2-N,N-Dichloroamino-2-methyl-1-propyl butyrate] | 62.5 (≈ 274 µM) | > 62.5 | 62.5 (≈ 274 µM) | > 62.5 | > 62.5 | > 62.5 | > 62.5 | > 62.5 | –
CC(C)(C)C(=O)OCC(C)(C)N(Cl)Cl [IV g, 2-N,N-Dichloroamino-2-methyl-1-propyl 2,2-dimethylproprionate] | 250 (≈ 1030 µM) | 250 (≈ 1030 µM) | 250 (≈ 1030 µM) | > 125 | > 125 | > 125 | > 125 | > 125 | Sterilization Time (S. epidermidis; Example X, S. epidermidis, pH 4.6, no horse serum, IV c 404 ppm (69 PPMCl+), IV g 489 ppm (143 PPMCl+)): 0.5 min; Sterilization Time (S. epidermidis; Example X, S. epidermidis, pH 7.0, no horse serum, IV c 1886 ppm (323 PPMCl+), IV g 409 ppm (120 PPMCl+)): 2 min; Sterilization Time (S. epidermidis; Example X, S. epidermidis, pH 9.3, no horse serum, IV c 1704 ppm (292 PPMCl+), IV g 319 ppm (94 PPMCl+)): 2 min; Sterilization Time (K. pneumoniae [3]; [5]): 0.5 min; Sterilization Time (K. pneumoniae [3]; [6]): 3 min; Sterilization Time (K. pneumoniae [3]; [7]): 2 min; Sterilization Time (P. aeruginosa [4]; [5]): 0.5 min; Sterilization Time (P. aeruginosa [4]; [6]): 0.5 min; Sterilization Time (P. aeruginosa [4]; [7]): 0.5 min; Sterilization Time (B. bronchiseptica; [5]): 1 min; Sterilization Time (B. bronchiseptica; [6]): 2 min; Sterilization Time (B. bronchiseptica; [7]): 2 min
CCCCCC(=O)OCC(C)(C)N(Cl)Cl [IV h, 2-N,N-Dichloroamino-2-methyl-1-propyl hexanoate] | > 62.5 | > 62.5 | 62.5 (≈ 244 µM) | > 62.5 | > 62.5 | 62.5 (≈ 244 µM) | > 62.5 | > 62.5 | –
CCCCCCCC(=O)OCC(C)(C)N(Cl)Cl [IV i, 2-N,N-Dichloroamino-2-methyl-1-propyloctanoate] | > 62.5 | 62.5 (≈ 220 µM) | 62.5 (≈ 220 µM) | > 62.5 | > 62.5 | 62.5 (≈ 220 µM) | > 62.5 | > 62.5 | –
CC(C)(COC(=O)c1cccnc1)N(Cl)Cl [IV j, 2-N,N-Dichloroamino-2-methyl-1-propyl nicotinate] | – | – | – | – | – | – | – | – | Sterilization Time (S. epidermidis; [8]): 3 min; Sterilization Time (K. pneumoniae [3]; [9]): 1 min; Sterilization Time (P. aeruginosa [4]; [9]): 2 min; Sterilization Time (B. bronchiseptica; [9]): 4 min
C[n+]1cccc(C(=O)OCC(C)(C)N(Cl)Cl)c1 [IV l, 2-N,N-Dichloroamino-2-methyl-1-propyl nicotinate methylfluorosulfonate] | – | – | – | – | – | – | – | – | Sterilization Time (S. epidermidis; [8]): 3 min; Sterilization Time (K. pneumoniae [3]; [9]): 5 min; Sterilization Time (P. aeruginosa [4]; [9]): 3 min; Sterilization Time (B. bronchiseptica; [9]): 5 min
